Results reported in ChEMBL document CHEMBL6182902, “Design, synthesis, and discovery of cinnamoyl amide derivatives as potent NagZ inhibitors with antibacterial activity” (Eur J Med Chem, 2025).
Activity calls are given as the source filed them. The rule behind the calls is not given here.

Key:
Escherichia coli [1] = test: Inhibition of recombinant N-terminal His-tagged Escherichia coli BL21 NagZ extracted from Escherichia coli BL21 using pNP-GlcNAc as substrate at 100 uM by absorbance based assay relative to control
[2] = Inhibition of recombinant N-terminal His-tagged Escherichia coli BL21 NagZ extracted from Escherichia coli BL21 using pNP-GlcNAc as substrate by absorbance based assay
[3] = Inhibition of recombinant N-terminal His-tagged Escherichia coli BL21 NagZ extracted from Escherichia coli BL21 using different concentrations of substrate pNP-GlcNAc by 4-nitrophenolate ion release based spectrophotometric analysis
Escherichia coli [4] = test: Binding affinity to CM5 chip-immobilized recombinant N-terminal His-tagged Escherichia coli BL21 NagZ extracted from Escherichia coli BL21 assessed as relative response by SPR analysis
[5] = Binding affinity to CM5 chip-immobilized recombinant N-terminal His-tagged Escherichia coli BL21 NagZ extracted from Escherichia coli BL21 assessed as equilibrium dissociation constant by SPR analysis
Pseudomonas aeruginosa [6] = test: Synergistic antibacterial activity against Pseudomonas aeruginosa ATCC 27853 assessed as fractional inhibitory concentration index incubated for 18 hrs in presence of imipenem by two-dimensional microdilution checkerboard assay; format: functional
Pseudomonas aeruginosa [7] = test: Synergistic antibacterial activity against Pseudomonas aeruginosa ATCC 27853 assessed as fractional inhibitory concentration index incubated for 18 hrs in presence of ceftazidime by two-dimensional microdilution checkerboard assay; format: functional
Pseudomonas aeruginosa [8] = test: Synergistic antibacterial activity against Pseudomonas aeruginosa ATCC 27853 assessed as fold reduction in imipenem MIC incubated for 18 hrs by two-dimensional microdilution checkerboard assay; format: functional
Pseudomonas aeruginosa [9] = test: Synergistic antibacterial activity against Pseudomonas aeruginosa ATCC 27853 assessed as fold reduction in ceftazidime MIC incubated for 18 hrs by two-dimensional microdilution checkerboard assay; format: functional
Pseudomonas aeruginosa [10] = test: Synergistic antibacterial activity against Pseudomonas aeruginosa ATCC 27853 infected in female KM mouse assessed as epithelial tissue proliferation in skin at 200 ug/ml applied topically in presence of imipenem measured after 3 days; format: functional, organism-based; conditions: dose 200.0 µg/ml, route top, time 3.0 day
Pseudomonas aeruginosa [11] = test: Synergistic antibacterial activity against Pseudomonas aeruginosa ATCC 27853 infected in female KM mouse assessed as exudate formation on wound surface at 200 ug/ml applied topically in presence of imipenem measured after 3 days; format: functional, organism-based; conditions: dose 200.0 µg/ml, route top, time 3.0 day
Pseudomonas aeruginosa [12] = test: Synergistic antibacterial activity against Pseudomonas aeruginosa ATCC 27853 infected in female KM mouse assessed as wound healing rate in skin at 200 ug/ml applied topically measured after 3 days in presence of imipenem (reference value: 36.2 %); format: functional; conditions: dose 200 µg/ml; route top; time 3 day
Pseudomonas aeruginosa [13] = test: Synergistic antibacterial activity against Pseudomonas aeruginosa ATCC 27853 infected in female KM mouse assessed as wound healing rate in skin at 200 ug/ml applied topically measured after 3 days in presence of ceftazidime (reference value: 36.2 %); format: functional; conditions: dose 200 µg/ml; route top; time 3 day
Pseudomonas aeruginosa [14] = test: Synergistic antibacterial activity against Pseudomonas aeruginosa ATCC 27853 infected in female KM mouse assessed as increase in wound contraction in skin at 200 ug/ml applied topically measured after 3 days in presence of ceftazidime; format: functional, organism-based; conditions: dose 200.0 µg/ml, route top, time 3.0 day
Pseudomonas aeruginosa [15] = test: Synergistic antibacterial activity against Pseudomonas aeruginosa ATCC 27853 infected in female KM mouse assessed as wound healing rate in skin at 200 ug/ml applied topically measured after 10 days in presence of imipenem relative to control; format: functional; conditions: dose 200 µg/ml; route top; time 10 day
Pseudomonas aeruginosa [16] = test: Synergistic antibacterial activity against Pseudomonas aeruginosa ATCC 27853 infected in female KM mouse assessed as wound healing rate in skin at 200 ug/ml applied topically measured after 10 days in presence of ceftazidime relative to control; format: functional; conditions: dose 200 µg/ml; route top; time 10 day

Work on `O=C(/C=C/c1ccc(Cl)c(Cl)c1)N[C@@H](Cc1ccc(I)cc1)C(=O)O` yielded an inhibition (Escherichia coli [1]) of 88%, an IC50 [2] of 6.4 µM and a Ki [3] of 3.3 µM. The RU (Escherichia coli [4]) was < 68, the Kd [5] was 42.8 µM and the “fractional inhibitory concentration index (FICI)” value (Pseudomonas aeruginosa [6]) was 0.375. The “fractional inhibitory concentration index (FICI)” value (Pseudomonas aeruginosa [7]) was 0.375, the “fold change (FC)” value (Pseudomonas aeruginosa [8]) was >4 and the “fold change (FC)” value (Pseudomonas aeruginosa [9]) was >4. For the same compound, the Activity (Pseudomonas aeruginosa [10]) was “Active”, the Activity (Pseudomonas aeruginosa [11]) was “Active” and the Activity (Pseudomonas aeruginosa [12]) was 69.4%. The Activity (Pseudomonas aeruginosa [13]) was 73.2%, the Activity (Pseudomonas aeruginosa [14]) was “Active; Activity Higher Than Imipenem And Compound-Ceftazidime Combination” and the Activity (Pseudomonas aeruginosa [15]) was 93.9%. It also gave an Activity (Pseudomonas aeruginosa [16]) of 95.7%.
